SMILES strings stand for the structures.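 Assay format: 96-well plates, 48-hour exposure. Abbreviation: GI50, concentration required for 50% inhibition of growth. At the TGI there is no net growth.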

Data on seven compounds can be found in PubChem BioAssay (NCI).

Some test systems named below: HCT-116 colon; HT29 colon; CCRF-CEM leukemia; SF-539 CNS; SR leukemia; SN12C renal; NCI-H226 lung; HCT-15 colon; TK-10 renal; SK-MEL-28 melanoma.
Common to all, as to assay: NCI-60 cell line screen, 48 h

For the compound `O=C(CSc1nc2ccc([N+](=O)[O-])cc2[nH]1)Nc1ccc([N+](=O)[O-])cc1`, the GI50 in the assay on HCT-116 colon was 2.7 µM; with HT29 colon it was 2.82 µM; in the assay with CCRF-CEM leukemia, 2.48 µM; in the assay with SF-539 CNS it was 2.96 µM; with SR leukemia it was 3.15 µM; with SN12C renal it was 2.26 µM. Besides, the GI50 with NCI-H226 lung was 2 µM; in the assay with HCT-15 colon, 2.93 µM; with TK-10 renal it was 3.47 µM; in the assay with SK-MEL-28 melanoma it was 2.82 µM. The TGI is more than 32.6 µM in the assay on HCT-116 colon; 10.6 µM in the assay with HT29 colon; more than 100 µM in the assay with CCRF-CEM leukemia; 11.9 µM in the assay with SF-539 CNS; more than 46.4 µM in the assay with SR leukemia; 10.6 µM with SN12C renal. Moreover, the TGI in the assay with NCI-H226 lung came to 7.88 µM; in the assay on HCT-15 colon it was 17.6 µM; with TK-10 renal, 11 µM; in the assay with SK-MEL-28 melanoma, 14.2 µM.
In the case of `COC1OC(CO)C(O)C(NC(=O)N(C)N=O)C1O` (stereo not given), the TGI in the assay on HCT-116 colon, in the assay on HT29 colon, in the assay with CCRF-CEM leukemia, in the assay on SF-539 CNS, in the assay with SR leukemia and in the assay with SN12C renal was more than 100 µM in each case. For the same compound, the TGI in the assay on NCI-H226 lung, with HCT-15 colon, in the assay on TK-10 renal and in the assay with SK-MEL-28 melanoma was more than 100 µM throughout.
For the compound `COC(=O)C(=O)C(C(=O)C(=O)Nc1ccccc1C(N)=O)c1nc2ccc([N+](=O)[O-])cc2[nH]c1=O` (stereo not given), the TGI with HCT-116 colon, in the assay with HT29 colon, in the assay with CCRF-CEM leukemia, with SF-539 CNS, with SR leukemia and with SN12C renal was more than 100 µM in each case. Also, the TGI in the assay on NCI-H226 lung, in the assay on HCT-15 colon, in the assay on TK-10 renal and in the assay with SK-MEL-28 melanoma was more than 100 µM each time.
Turning to `S=C1NC(c2ccccc2)=NC(Cc2ccccc2)(c2ccccc2)N1c1ccccc1` (stereo not given), the TGI with HCT-116 colon, with HT29 colon, in the assay with CCRF-CEM leukemia, in the assay on SF-539 CNS, in the assay with SR leukemia and with SN12C renal was more than 100 µM in each case. Further, the TGI in the assay with NCI-H226 lung, in the assay with HCT-15 colon, in the assay with TK-10 renal and with SK-MEL-28 melanoma was more than 100 µM in each case.
As for `Cc1cc2c(cc1C)[n+](=O)c(C(=O)CC(=O)C(=O)Nc1ccccc1C)c(C)n2[O-]`, the TGI in the assay on HCT-116 colon, in the assay on HT29 colon, in the assay with CCRF-CEM leukemia, with SF-539 CNS, in the assay with SR leukemia and in the assay with SN12C renal was more than 100 µM throughout. Further, the TGI in the assay on NCI-H226 lung, in the assay on HCT-15 colon, in the assay with TK-10 renal and in the assay on SK-MEL-28 melanoma was more than 100 µM throughout.
Turning to `OC1CCC(COC(c2ccccc2)(c2ccccc2)c2ccccc2)O1` (stereo not given), the TGI with HCT-116 colon was 30.4 µM; in the assay on HT29 colon it was 33.7 µM; in the assay with CCRF-CEM leukemia it was 35.8 µM; with SF-539 CNS it was 32.5 µM; in the assay with SR leukemia, more than 10 µM; with SN12C renal, 38.6 µM. The TGI in the assay with NCI-H226 lung is 45.4 µM; in the assay with HCT-15 colon, 44.5 µM; with TK-10 renal it was more than 10 µM; with SK-MEL-28 melanoma, 33.4 µM.
On to `N#C/C(=C\c1ccc([N+](=O)[O-])cc1)n1nnc2cc(F)c(F)cc21`, for which the GI50 in the assay with HCT-116 colon is 1.54 µM; in the assay with HT29 colon it was 1.87 µM; in the assay with CCRF-CEM leukemia, 1.94 µM; in the assay on SF-539 CNS, 1.74 µM; with SR leukemia, 1.08 µM; with SN12C renal it was 1.77 µM. Also, the GI50 is 1.97 µM in the assay on NCI-H226 lung, 1.93 µM in the assay with HCT-15 colon, 1.89 µM in the assay on TK-10 renal and 2.26 µM with SK-MEL-28 melanoma. In addition, the TGI is 3.01 µM in the assay with HCT-116 colon; 3.64 µM in the assay with HT29 colon; 21.9 µM in the assay on CCRF-CEM leukemia; 3.27 µM with SF-539 CNS; more than 100 µM in the assay on SR leukemia; 3.61 µM in the assay with SN12C renal. Further, the TGI in the assay with NCI-H226 lung was determined as 5.73 µM; in the assay on HCT-15 colon, 5.44 µM; in the assay with TK-10 renal, 3.33 µM; in the assay on SK-MEL-28 melanoma, 4.97 µM.
